Results taken from ChEMBL document CHEMBL1201862, “PubChem BioAssay data set” (2004).
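All cell lines were grown in 96-well plates and treated with compound for 48 hours. GI50 is the concentration that inhibits growth by half.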 Active and inactive are the calls of the source. Cut-off read from the data, not from the text of the source: active = GI50 up to about 1.1 µM and inactive = higher.

Assays:
Assay in all cases: NCI-60 cell line screen, 48 h
786-0 = test system: 786-0
A498 = test system: A498
A549 = test system: A549
ACHN = test system: ACHN
BT-549 = test system: BT-549
CAKI-1 = test system: CAKI-1
CCRF-CEM = test system: CCRF-CEM
COLO 205 = test system: COLO 205
DU-145 = test system: DU-145
EKVX = test system: EKVX
HCC 2998 = test system: HCC 2998
HCT-116 = test system: HCT-116
HCT-15 = test system: HCT-15
HL-60 = test system: HL-60
HOP-62 = test system: HOP-62
HOP-92 = test system: HOP-92
HT-29 = test system: HT-29
Hs-578T = test system: Hs-578T
IGROV-1 = test system: IGROV-1
K562 = test system: K562
KM12 = test system: KM12
LOX IMVI = test system: LOX IMVI
M14 = test system: M14
MCF7 = test system: MCF7
MDA-MB-231 = test system: MDA-MB-231
MDA-MB-435 = test system: MDA-MB-435
MDA-N = test system: MDA-N
MOLT-4 = test system: MOLT-4
Malme-3M = test system: Malme-3M
NCI-H226 = test system: NCI-H226
NCI-H23 = test system: NCI-H23
NCI-H460 = test system: NCI-H460
NCI-H522 = test system: NCI-H522
NCI/ADR-RES = test system: NCI/ADR-RES
OVCAR-3 = test system: OVCAR-3
OVCAR-4 = test system: OVCAR-4
OVCAR-5 = test system: OVCAR-5
OVCAR-8 = test system: OVCAR-8
PC-3 = test system: PC-3
RPMI-8226 = test system: RPMI-8226
RXF 393 = test system: RXF 393
SF-268 = test system: SF-268
SF-295 = test system: SF-295
SF-539 = test system: SF-539
SK-MEL-28 = test system: SK-MEL-28
SK-MEL-2 = test system: SK-MEL-2
SK-MEL-5 = test system: SK-MEL-5
SK-OV-3 = test system: SK-OV-3
SN12C = test system: SN12C
SNB-19 = test system: SNB-19
SNB-75 = test system: SNB-75
SR = test system: SR
SW-620 = test system: SW-620
T47D = test system: T47D
TK-10 = test system: TK-10
U-251 = test system: U-251
UACC-257 = test system: UACC-257
UACC-62 = test system: UACC-62
UO-31 = test system: UO-31

In the case of `O=C(/N=S(/NC(=O)c1ccccc1)C(Cl)(Cl)Cl)c1ccccc1` (configuration not stated), the GI50 (786-0) is reported as 28.1 µM (inactive), the GI50 (A498) is reported as 27 µM (inactive) and the GI50 (A549) is reported as > 56.9 µM (inactive). The GI50 (ACHN) was 18.4 µM (inactive), the GI50 (BT-549) was 12.7 µM (inactive) and the GI50 (CAKI-1) was 20.9 µM (inactive). For the same compound, the GI50 (CCRF-CEM) was 2.7 µM (inactive), the GI50 (COLO 205) was 14.8 µM (inactive) and the GI50 (DU-145) was 53.5 µM (inactive). The GI50 (EKVX) was 19.7 µM (inactive), the GI50 (HCC 2998) was 34.8 µM (inactive) and the GI50 (HCT-116) was 15.5 µM (inactive). For the same compound, the GI50 (HCT-15) was 8.59 µM, the GI50 (HL-60) was 4.89 µM (inactive) and the GI50 (HOP-62) was 19.5 µM (inactive). The GI50 (HOP-92) was 32.3 µM (inactive), the GI50 (HT-29) was 18.9 µM (inactive) and the GI50 (Hs-578T) was 40.6 µM (inactive). The GI50 (IGROV-1) was 8.47 µM (inactive), the GI50 (K562) was 8.91 µM (inactive) and the GI50 (KM12) was > 65 µM (inactive). For the same compound, the GI50 (LOX IMVI) was 10.6 µM (inactive), the GI50 (M14) was 10.5 µM (inactive) and the GI50 (MCF7) was 24 µM (inactive). For the same compound, the GI50 (MDA-MB-231) was 33.7 µM (inactive), the GI50 (MDA-MB-435) was 17.7 µM (inactive) and the GI50 (MDA-N) was 29.8 µM (inactive). For the same compound, the GI50 (MOLT-4) was 6.97 µM (inactive), the GI50 (Malme-3M) was 17.5 µM (inactive) and the GI50 (NCI-H226) was 25.6 µM (inactive). The GI50 (NCI-H23) was 12.4 µM (inactive), the GI50 (NCI-H460) was 30.5 µM (inactive) and the GI50 (NCI-H522) was 30.3 µM (inactive). For the same compound, the GI50 (NCI/ADR-RES) was 15.5 µM (inactive), the GI50 (OVCAR-3) was 31.2 µM (inactive) and the GI50 (OVCAR-4) was 17.4 µM (inactive). For the same compound, the GI50 (OVCAR-5) was 22.9 µM (inactive), the GI50 (OVCAR-8) was 15.5 µM (inactive) and the GI50 (PC-3) was 46.2 µM (inactive). The GI50 (RPMI-8226) was 41.2 µM (inactive), the GI50 (RXF 393) was 12.1 µM (inactive) and the GI50 (SF-268) was 50.2 µM (inactive). The GI50 (SF-295) was 9.25 µM (inactive), the GI50 (SF-539) was 21.1 µM (inactive) and the GI50 (SK-MEL-28) was 25.3 µM (inactive). The GI50 (SK-MEL-2) was 31.9 µM (inactive), the GI50 (SK-MEL-5) was 14.3 µM (inactive) and the GI50 (SK-OV-3) was > 31.6 µM (inactive). The GI50 (SN12C) was 24.7 µM (inactive), the GI50 (SNB-19) was 51.2 µM (inactive) and the GI50 (SNB-75) was 40.6 µM (inactive). The GI50 (SR) was 17.1 µM (inactive), the GI50 (SW-620) was 3.57 µM (inactive) and the GI50 (T47D) was 26.9 µM (inactive). For the same compound, the GI50 (TK-10) was > 100 µM (inactive), the GI50 (U-251) was 29.9 µM (inactive) and the GI50 (UACC-257) was 35.2 µM (inactive). The GI50 (UACC-62) was 22.6 µM (inactive) and the GI50 (UO-31) was 16.3 µM (inactive).

`CCOC(=O)[C@@H]1[C@@H]2NC(=O)N[C@@]1(C)Oc1ccccc12` was tested, and the GI50 (786-0) was > 100 µM (inactive), the GI50 (A498) was > 100 µM (inactive) and the GI50 (ACHN) was > 100 µM (inactive). For the same compound, the GI50 (BT-549) was > 100 µM (inactive), the GI50 (CAKI-1) was > 100 µM (inactive) and the GI50 (CCRF-CEM) was > 100 µM (inactive). For the same compound, the GI50 (COLO 205) was > 100 µM (inactive), the GI50 (DU-145) was > 100 µM (inactive) and the GI50 (EKVX) was > 100 µM (inactive). The GI50 (HCC 2998) was > 100 µM (inactive), the GI50 (HCT-116) was > 100 µM (inactive) and the GI50 (HCT-15) was greater than 100 µM. The GI50 (HL-60) was > 100 µM (inactive), the GI50 (HOP-62) was > 100 µM (inactive) and the GI50 (HOP-92) was > 100 µM (inactive). For the same compound, the GI50 (HT-29) was > 100 µM (inactive), the GI50 (Hs-578T) was > 100 µM (inactive) and the GI50 (IGROV-1) was > 100 µM (inactive). For the same compound, the GI50 (K562) was > 100 µM (inactive), the GI50 (KM12) was > 100 µM (inactive) and the GI50 (LOX IMVI) was > 100 µM (inactive). The GI50 (M14) was > 100 µM (inactive), the GI50 (MCF7) was > 100 µM (inactive) and the GI50 (MDA-MB-231) was > 100 µM (inactive). For the same compound, the GI50 (MDA-MB-435) was > 100 µM (inactive), the GI50 (MDA-N) was > 100 µM (inactive) and the GI50 (MOLT-4) was > 100 µM (inactive). The GI50 (Malme-3M) was > 100 µM (inactive), the GI50 (NCI-H226) was > 100 µM (inactive) and the GI50 (NCI-H23) was > 100 µM (inactive). For the same compound, the GI50 (NCI-H460) was > 100 µM (inactive), the GI50 (NCI-H522) was > 100 µM (inactive) and the GI50 (NCI/ADR-RES) was > 100 µM (inactive). For the same compound, the GI50 (OVCAR-3) was > 100 µM (inactive), the GI50 (OVCAR-4) was > 100 µM (inactive) and the GI50 (OVCAR-5) was > 100 µM (inactive). The GI50 (OVCAR-8) was > 100 µM (inactive), the GI50 (PC-3) was > 100 µM (inactive) and the GI50 (RPMI-8226) was > 100 µM (inactive). For the same compound, the GI50 (RXF 393) was > 100 µM (inactive), the GI50 (SF-268) was > 100 µM (inactive) and the GI50 (SF-295) was > 100 µM (inactive). For the same compound, the GI50 (SF-539) was > 100 µM (inactive), the GI50 (SK-MEL-28) was > 100 µM (inactive) and the GI50 (SK-MEL-2) was > 100 µM (inactive). For the same compound, the GI50 (SK-MEL-5) was > 100 µM (inactive), the GI50 (SK-OV-3) was > 100 µM (inactive) and the GI50 (SN12C) was > 100 µM (inactive). For the same compound, the GI50 (SNB-19) was > 100 µM (inactive), the GI50 (SNB-75) was > 100 µM (inactive) and the GI50 (SR) was > 100 µM (inactive). For the same compound, the GI50 (SW-620) was > 100 µM (inactive), the GI50 (T47D) was > 100 µM (inactive) and the GI50 (TK-10) was > 100 µM (inactive). For the same compound, the GI50 (U-251) was > 100 µM (inactive), the GI50 (UACC-257) was > 100 µM (inactive) and the GI50 (UACC-62) was > 100 µM (inactive). The GI50 (UO-31) was > 100 µM (inactive).
